US20040023295A1, “Methods and systems for analyzing complex biological systems” (priority 2001, published 2004)

Test system: Saccharomyces cerevisiae wild type strain BY4743
Test: Yeast azole drug experiment AF1: metabolite analysis (GC-MS, LC-MS)
Type: cell-based

C[C@@H]1[C@H](O)[C@@H](C)/C=C/C=C/C=C/C=C/C=C/C=C/C=C/[C@H](O[C@@H]2O[C@H](C)[C@@H](O)[C@H](N)[C@@H]2O)C[C@@H]2O[C@](O)(C[C@@H](O)C[C@@H](O)[C@H](O)CC[C@@H](O)C[C@@H](O)CC(=O)O[C@H]1C)C[C@H](O)[C@H]2C(=O)O [Amphoteracin B]
Fold Change of metabolite 5hydroxyL-tryptophan (platform nLC, p-Value 1): 0
Fold Change of metabolite 6-benzylaminopurine (platform nLC, p-Value 1): 0
Fold Change of metabolite NacetylD-glucosamine (platform nLC, p-Value 1): 0
Fold Change of metabolite NacetylL-ornithine (platform nLC, p-Value 1): 0
Fold Change of metabolite abscisic acid (platform nLC, p-Value 1): 0
Fold Change of metabolite adenine (platform nLC, p-Value 1): 0
Fold Change of metabolite adenosine (platform nLC, p-Value 1): 0
Fold Change of metabolite anthranilic acid (platform nLC, p-Value 1): 0
Fold Change of metabolite argininosuccinate (platform nLC, p-Value 1): 0
Fold Change of metabolite benzoic acid (platform nLC, p-Value 1): 0
Fold Change of metabolite catechol (platform nLC, p-Value 1): 0
Fold Change of metabolite cinnamic acid (platform nLC, p-Value 1): 0
Fold Change of metabolite citricanoic/itaconi (platform nLC, p-Value 1): 0
Fold Change of metabolite coumaric acid (platform nLC, p-Value 1): 0
Fold Change of metabolite cytosine (platform nLC, p-Value 1): 0
Fold Change of metabolite diaminopimelic acid (platform nLC, p-Value 1): 0
Fold Change of metabolite dihydrofolic acid (platform nLC, p-Value 1): 0
Fold Change of metabolite estrone (platform nLC, p-Value 1): 0
Fold Change of metabolite farnesol (platform nLC, p-Value 1): 0
Fold Change of metabolite folic acid (platform nLC, p-Value 1): 0
Fold Change of metabolite gibberellic (platform nLC, p-Value 1): 0
Fold Change of metabolite guanine (platform nLC, p-Value 1): 0
Fold Change of metabolite histidine (platform nLC, p-Value 1): 0
Fold Change of metabolite homogentisic/uric (platform nLC, p-Value 1): 0
Fold Change of metabolite hydrocortisone (platform nLC, p-Value 1): 0
Fold Change of metabolite indole3-pyruvic acid (platform nLC, p-Value 1): 0
Fold Change of metabolite jasmonic acid (platform nLC, p-Value 1): 0
Fold Change of metabolite luteolin (platform nLC, p-Value 1): 0
Fold Change of metabolite malonic acid (platform nLC, p-Value 1): 0
Fold Change of metabolite methionine (platform nLC, p-Value 1): 0
Fold Change of metabolite phenylpyruvic acid (platform nLC, p-Value 1): 0
Fold Change of metabolite phosphoenolpyruvate (platform nLC, p-Value 1): 0
Fold Change of metabolite pinitol (platform nLC, p-Value 1): 0
Fold Change of metabolite porphobilinogen (platform nLC, p-Value 1): 0
Fold Change of metabolite retinoic acid (platform nLC, p-Value 1): 0
Fold Change of metabolite salicylic/HObenzoic (platform nLC, p-Value 1): 0
Fold Change of metabolite shikimic acid (platform nLC, p-Value 1): 0
Fold Change of metabolite sinapinic acid (platform nLC, p-Value 1): 0
Fold Change of metabolite thymine (platform nLC, p-Value 1): 0
Fold Change of metabolite DL-aminoadipic acid (platform pLC, p-Value 0.229215472): 0.4703
Fold Change of metabolite mevalonic lactone (platform pLC, p-Value 0.251617022): −0.4606
Fold Change of metabolite methionine (platform pLC, p-Value 0.367502423): 0.3299
Fold Change of metabolite NacetylL-ornithine (platform pLC, p-Value 0.392871315): 1.319
Fold Change of metabolite citrulline (platform pLC, p-Value 0.433366283): 1.798
Fold Change of metabolite proline (platform pLC, p-Value 0.474762121): 0.6707
Fold Change of metabolite ornithine (platform pLC, p-Value 0.48461244): 0.5049
Fold Change of metabolite arginine (platform pLC, p-Value 0.522893347): 0.4662
Fold Change of metabolite asparagine (platform pLC, p-Value 0.526485859): 0.6344
Fold Change of metabolite alanine/sarcosine (platform pLC, p-Value 0.540255177): 0.2602
Fold Change of metabolite pipecolic acid (platform pLC, p-Value 0.556385814): 0.5237
Fold Change of metabolite glutamate (platform pLC, p-Value 0.563874982): 0.4341
Fold Change of metabolite phenylalanine (platform pLC, p-Value 0.573569375): 0.4036
Fold Change of metabolite mannitol (platform pLC, p-Value 0.575742486): 0.4543
Fold Change of metabolite glutamine/lysine (platform pLC, p-Value 0.618892728): 0.3981
Fold Change of metabolite aspartic acid (platform pLC, p-Value 0.626001257): 0.3594
Fold Change of metabolite threonine/homoserin (platform pLC, p-Value 0.668114613): 0.3145
Fold Change of metabolite serine (platform pLC, p-Value 0.716422123): 0.2011
Fold Change of metabolite leucine/isoleucine/ (platform pLC, p-Value 0.723852356): 0.2746
Fold Change of metabolite hypoxanthine (platform pLC, p-Value 0.74082632): 0.2057
Fold Change of metabolite pyridoxine (platform pLC, p-Value 0.776529987): −0.1684
Fold Change of metabolite guanosine (platform pLC, p-Value 0.886514477): 0.7598
Fold Change of metabolite selenoDL-methionine (platform pLC, p-Value 0.888275646): 1.178
Fold Change of metabolite adenine (platform pLC, p-Value 0.892253251): 0.1153
Fold Change of metabolite 4ambutyrate/dimglyc (platform pLC, p-Value 0.920009792): 0.01279
Fold Change of metabolite glutathione (platform pLC, p-Value 0.951676383): −0.03348
Fold Change of metabolite 4-aminobenzoic acid (platform pLC, p-Value 1): 0
Fold Change of metabolite 4-methylcatechol (platform pLC, p-Value 1): 0
Fold Change of metabolite 5hydroxyL-tryptophan (platform pLC, p-Value 1): 0
Fold Change of metabolite 6benzylaminopurine (platform pLC, p-Value 1): 0
Fold Change of metabolite NacetylD-glucosamine (platform pLC, p-Value 1): 0
Fold Change of metabolite NacetylL-glutamate (platform pLC, p-Value 1): 0
Fold Change of metabolite abscisic acid (platform pLC, p-Value 1): 0
Fold Change of metabolite adenosine (platform pLC, p-Value 1): 0
Fold Change of metabolite allantoic acid (platform pLC, p-Value 1): 0
Fold Change of metabolite anthranilic acid (platform pLC, p-Value 1): 0
Fold Change of metabolite argininosuccinate (platform pLC, p-Value 1): 0
Fold Change of metabolite biotin (platform pLC, p-Value 1): 0
Fold Change of metabolite caffeine (platform pLC, p-Value 1): 0
Fold Change of metabolite citric acid TME (platform pLC, p-Value 1): 0
Fold Change of metabolite cytidine (platform pLC, p-Value 1): 0
Fold Change of metabolite cytosine (platform pLC, p-Value 1): 0
Fold Change of metabolite diaminopimelic acid (platform pLC, p-Value 1): 0
Fold Change of metabolite dihydrofolic acid (platform pLC, p-Value 1): 0
Fold Change of metabolite dipicolinic acid (platform pLC, p-Value 1): 0
Fold Change of metabolite folic acid (platform pLC, p-Value 1): 0
Fold Change of metabolite glucosamine (platform pLC, p-Value 1): 0
Fold Change of metabolite glucosamine6PO4 (platform pLC, p-Value 1): 0
Fold Change of metabolite histidine (platform pLC, p-Value 1): 0
Fold Change of metabolite hydrocortisone (platform pLC, p-Value 1): 0
Fold Change of metabolite itaconic acid dimes (platform pLC, p-Value 1): 0
Fold Change of metabolite luteolin (platform pLC, p-Value 1): 0
Fold Change of metabolite niacinamide (platform pLC, p-Value 1): 0
Fold Change of metabolite nopaline (platform pLC, p-Value 1): 0
Fold Change of metabolite phosphoenolpyruvate (platform pLC, p-Value 1): 0
Fold Change of metabolite progesterone (platform pLC, p-Value 1): 0
Fold Change of metabolite riboflavin (platform pLC, p-Value 1): 0
Fold Change of metabolite sugar-phosphate (platform pLC, p-Value 1): 0
Fold Change of metabolite thiamine (platform pLC, p-Value 1): 0
Fold Change of metabolite thymine (platform pLC, p-Value 1): 0
Fold Change of metabolite tryptophan (platform pLC, p-Value 1): 0
Fold Change of metabolite nicotinic acid (platform pLC, p-Value 7.53474E−05): −0.9989
